From PMC9694777, “Fractionation and Extraction Optimization of Potentially Valuable Compounds and Their Profiling in Six Varieties of Two Nicotiana Species” (Molecules, 2022)
Converted amounts (≈) assume the structure as drawn. One block for each compound: values may come before it.

Assay: physchem
Text: Determination of the small molecule content in a complex plant matrix depends on the understanding of minimum solubility in the chosen extraction solvent. […] Often, tests on mixture are hardly reproducible on pure compounds if this aspect is not routinely considered in the workflow. We performed a general testing of best solvent systems to compare a wide range of small molecules of interest to understand the limitations of general approaches within a complex plant matrix such as Nicotiana.
For each of the 29 reference compounds, 2 mg was weighed into a 15 mL glass tube and dissolved in the minimum amount of the test solvent by gradually adding the solvent with a micropipette until complete dissolution or to a final volume of 10.0 mL. Seven solvents with polarities from nonpolar to polar were chosen for the test: hexane (C6H14), CH2Cl2, CH2Cl2/MeOH (4:1, v/v), EtOH, MeOH, MeOH/H2O (7:3, v/v), and H2O. The consumed solvents and their volumes were recorded for each reference compound.

[1] = 22 °C, organic solvent or mixture, thermodynamic from solid, Solubility in CH2Cl2
[2] = 22 °C, organic solvent or mixture, thermodynamic from solid, Solubility in EtOH
[3] = 22 °C, organic solvent or mixture, thermodynamic from solid, Solubility in MeOH/H2O (7:3)
[4] = hexane (C6H14), 22 °C, organic solvent or mixture, thermodynamic from solid, Solubility in C6H14, solvent hexane (C6H14); room temperature (21–23 °C); 2 mg compound, solvent added until dissolution or 10.0 mL
[5] = methanol, 22 °C, organic solvent or mixture, thermodynamic from solid, Solubility in MeOH, solvent methanol; room temperature (21–23 °C)
[6] = water, 22 °C, thermodynamic from solid, Solubility in H2O, solvent water; room temperature (21–23 °C)
[7] = 22 °C, organic solvent or mixture, thermodynamic from solid, Solubility in C6H14, solvent hexane (C6H14); room temperature (21–23 °C); 2 mg compound, solvent added until dissolution or 10.0 mL
[8] = 22 °C, organic solvent or mixture, thermodynamic from solid, Solubility in CH2Cl2, solvent dichloromethane (CH2Cl2); room temperature (21–23 °C)
[9] = 22 °C, organic solvent or mixture, thermodynamic from solid, Solubility in CH2Cl2/MeOH (4:1), solvent CH2Cl2/MeOH (4:1, v/v); room temperature (21–23 °C)
[10] = 22 °C, organic solvent or mixture, thermodynamic from solid, Solubility in EtOH, solvent ethanol; room temperature (21–23 °C)
[11] = 22 °C, organic solvent or mixture, thermodynamic from solid, Solubility in MeOH, solvent methanol; room temperature (21–23 °C)
[12] = 22 °C, organic solvent or mixture, thermodynamic from solid, Solubility in MeOH/H2O (7:3), solvent MeOH/H2O (7:3, v/v); room temperature (21–23 °C)
[13] = 22 °C, water, thermodynamic from solid, Solubility in H2O, solvent water; room temperature (21–23 °C)
[14] = MeOH/H2O (7:3, v/v), 22 °C, organic solvent or mixture, thermodynamic from solid, Solubility in MeOH/H2O (7:3), solvent MeOH/H2O (7:3, v/v); room temperature (21–23 °C)
[15] = dichloromethane (CH2Cl2), 22 °C, organic solvent or mixture, thermodynamic from solid, Solubility in CH2Cl2, solvent dichloromethane (CH2Cl2); room temperature (21–23 °C)
[16] = ethanol, 22 °C, organic solvent or mixture, thermodynamic from solid, Solubility in EtOH, solvent ethanol; room temperature (21–23 °C)
[17] = solvent CH2Cl2/MeOH (4:1, v/v); room temperature (21–23 °C)
[18] = solvent MeOH/H2O (7:3, v/v); room temperature (21–23 °C)
[19] = solvent dichloromethane (CH2Cl2); room temperature (21–23 °C)
[20] = solvent ethanol; room temperature (21–23 °C)
[21] = solvent hexane (C6H14); room temperature (21–23 °C); 2 mg compound, solvent added until dissolution or 10.0 mL
[22] = solvent methanol; room temperature (21–23 °C)
[23] = solvent water; room temperature (21–23 °C)
[24] = 22 °C, organic solvent or mixture, thermodynamic from solid, Solubility in C6H14
[25] = 22 °C, organic solvent or mixture, thermodynamic from solid, Solubility in MeOH
[26] = 22 °C, water, thermodynamic from solid, Solubility in H2O

Compound: O=C(O)c1cccnc1 [Nicotinic acid]
solubility [1]: < 190 µg/mL
solubility [2]: 3510 µg/mL (≈ 28.5 mM)
solubility [3]: 2850 µg/mL (≈ 23.1 mM)
solubility [4]: < 190 µg/mL
solubility [5]: 6710 µg/mL (≈ 54.5 mM)
solubility [6]: 3100 µg/mL (≈ 25.2 mM)

Compound: c1cncc([C@@H]2CCCN2)c1 [Nornicotine]
solubility [7]: 358000 µg/mL (≈ 2420 mM)
solubility [8]: 422000 µg/mL (≈ 2850 mM)
solubility [9]: 412000 µg/mL (≈ 2780 mM)
solubility [10]: 396000 µg/mL (≈ 2670 mM)
solubility [11]: 428000 µg/mL (≈ 2890 mM)
solubility [12]: 418000 µg/mL (≈ 2820 mM)
solubility [13]: 416000 µg/mL (≈ 2810 mM)

Compound: C[C@@H]1O[C@@H](OC[C@H]2O[C@@H](Oc3c(-c4ccc(O)c(O)c4)oc4cc(O)cc(O)c4c3=O)[C@H](O)[C@@H](O)[C@@H]2O)[C@H](O)[C@H](O)[C@H]1O [Rutin]
solubility [14]: 520 µg/mL (≈ 0.852 mM)
solubility [15]: < 190 µg/mL
solubility [16]: 6670 µg/mL (≈ 10.9 mM)
solubility [4]: < 190 µg/mL
solubility [5]: 49000 µg/mL (≈ 80.3 mM)
Solubility in CH2Cl2/MeOH (4:1) [17]: 3820 µg/mL (≈ 6.26 mM)
Solubility in CH2Cl2/MeOH (4:1) (solvent CH2Cl2/MeOH (4:1, v/v); room temperature (21–23 °C); listed as rutin): < 100000 µg/mL
solubility [6]: < 190 µg/mL

solubility (CH2Cl2/MeOH (4:1, v/v), 22 °C, organic solvent or mixture, thermodynamic from solid, Solubility in CH2Cl2/MeOH (4:1), solvent CH2Cl2/MeOH (4:1, v/v); room temperature (21–23 °C)): 219000 µg/mL (≈ 710 mM)
solubility [14]: 3170 µg/mL (≈ 10.3 mM)
solubility [15]: 58000 µg/mL (≈ 188 mM)
solubility [16]: 75700 µg/mL (≈ 245 mM)
solubility [4]: 3760 µg/mL (≈ 12.2 mM)
solubility [5]: 65700 µg/mL (≈ 213 mM)
solubility [6]: < 190 µg/mL
Compound: C=C[C@](C)(O)CC[C@@H]1[C@@]2(C)CCCC(C)(C)[C@@H]2CC[C@@]1(C)O [Sclareol]

Compound: CC(C)=CCC/C(C)=C/CC/C(C)=C/CC/C(C)=C/CC/C(C)=C/CC/C(C)=C/CC/C(C)=C/CC/C(C)=C/CC/C(C)=C/CO [Solanesol]
Solubility in CH2Cl2/MeOH (4:1) [17]: 203000 µg/mL (≈ 322 mM)
Solubility in MeOH/H2O (7:3) [18]: NS (not soluble, insoluble in the solvent at the tested concentration range (0.19–558 mg/mL))
Solubility in CH2Cl2 [19]: 235000 µg/mL (≈ 372 mM)
Solubility in EtOH [20]: 3310 µg/mL (≈ 5.24 mM)
Solubility in C6H14 [21]: 42000 µg/mL (≈ 66.6 mM)
Solubility in MeOH [22]: 510 µg/mL (≈ 0.808 mM)
Solubility in H2O [23]: NS (not soluble, insoluble in the solvent at the tested concentration range (0.19–558 mg/mL))

Compound: CC(C)=CCC/C(C)=C/CC/C(C)=C/CC/C=C(\C)CC/C=C(\C)CCC=C(C)C [Squalene]
solubility [7]: 446000 µg/mL (≈ 1090 mM)
solubility [8]: 474000 µg/mL (≈ 1150 mM)
solubility [9]: 472000 µg/mL (≈ 1150 mM)
solubility [10]: 5940 µg/mL (≈ 14.5 mM)
solubility [11]: 220 µg/mL (≈ 0.536 mM)
solubility [12]: < 190 µg/mL
solubility [13]: < 190 µg/mL

solubility [24]: 104000 µg/mL (≈ 270 mM)
solubility [1]: 100000 µg/mL (≈ 260 mM)
solubility (22 °C, organic solvent or mixture, thermodynamic from solid, Solubility in CH2Cl2/MeOH (4:1)): 212000 µg/mL (≈ 551 mM)
solubility [2]: 74300 µg/mL (≈ 193 mM)
solubility [25]: 113000 µg/mL (≈ 294 mM)
solubility [3]: < 190 µg/mL
solubility [26]: < 190 µg/mL
Compound: C=C1CC[C@H](O)C/C1=C/C=C1\CCC[C@]2(C)[C@@H]([C@H](C)CCCC(C)C)CC[C@@H]12 [Vitamin D3]

solubility [24]: < 190 µg/mL
solubility [1]: < 190 µg/mL
solubility [2]: 560 µg/mL (≈ 2.55 mM)
solubility [25]: 2280 µg/mL (≈ 10.4 mM)
solubility [3]: 3030 µg/mL (≈ 13.8 mM)
solubility [26]: < 190 µg/mL
Compound: C/C(=C\CNc1ncnc2[nH]cnc12)CO [Zeatin]

Compound: CC1=C(/C=C/C(C)=C/C=C/C(C)=C/C=C/C=C(C)/C=C/C=C(C)/C=C/C2=C(C)C[C@@H](O)CC2(C)C)C(C)(C)C[C@H](O)C1 [Zeaxanthin]
solubility [7]: < 190 µg/mL
solubility [8]: 290 µg/mL (≈ 0.51 mM)
solubility [10]: < 190 µg/mL
solubility [11]: < 190 µg/mL
solubility [12]: < 190 µg/mL
solubility [13]: < 190 µg/mL
Solubility in CH2Cl2/MeOH (4:1) [17]: 490 µg/mL (≈ 0.861 mM)
Solubility in CH2Cl2/MeOH (4:1) (solvent CH2Cl2/MeOH (4:1, v/v); room temperature (21–23 °C); listed as zeaxanthin): < 100000 µg/mL

Compound: Megastigmatrienone
Solubility in CH2Cl2/MeOH (4:1) [17]: 212000 µg/mL
Solubility in MeOH/H2O (7:3) [18]: 38800 µg/mL
Solubility in CH2Cl2 [19]: 215000 µg/mL
Solubility in EtOH [20]: 197000 µg/mL
Solubility in C6H14 [21]: 1100 µg/mL
Solubility in MeOH [22]: 228000 µg/mL
Solubility in H2O [23]: NS (not soluble, insoluble in the solvent at the tested concentration range (0.19–558 mg/mL))

Compound: Phytol
Solubility in MeOH/H2O (7:3) [18]: 320 µg/mL
Solubility in H2O [23]: NS (not soluble, insoluble in the solvent at the tested concentration range (0.19–558 mg/mL))
